The values below come from PubChem BioAssay AID1671325.

The test deals with Mitogen-activated protein kinase 11 (Homo sapiens) (UniProt Q15759). As to the kind of experiment: PubChem AID 1671325. Particulars: Z'-LYTE FRET kinase activity, recombinant MAPK11.
Sequence of Mitogen-activated protein kinase 11 (Homo sapiens) (Q15759 whole entry, looked up): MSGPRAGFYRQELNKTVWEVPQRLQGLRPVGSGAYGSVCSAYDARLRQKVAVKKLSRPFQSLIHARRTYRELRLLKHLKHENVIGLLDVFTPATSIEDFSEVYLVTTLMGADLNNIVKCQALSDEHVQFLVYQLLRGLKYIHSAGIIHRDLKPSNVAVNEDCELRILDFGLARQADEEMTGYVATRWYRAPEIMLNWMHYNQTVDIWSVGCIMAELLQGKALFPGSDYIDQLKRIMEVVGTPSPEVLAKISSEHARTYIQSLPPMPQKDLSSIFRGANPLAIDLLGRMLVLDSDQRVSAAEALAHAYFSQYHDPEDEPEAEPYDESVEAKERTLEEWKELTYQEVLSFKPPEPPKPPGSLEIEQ

With `CC(C)(C)n1nc(-c2ccc(Cl)cc2)c2c(N)ncnc21`, the concentration for half-maximal inhibition (IC50) was 3.53 µM.

In general, IC50 refers to the concentration at which inhibition is half-maximal.
